US12226412B2, “Heteroaryl-ketone fused azadecalin glucocorticoid receptor modulators” (Corcept Therapeutics, Inc., priority 2012, dated 2025)
Like-named read-outs stand apart in the source and are kept apart here.

Experiments:
[1] = tested on: induction of TAT by dexamethasone in HepG2 cells; test: HepG2 tyrosine aminotransferase (TAT) assay; format: cell-based, human
human recombinant GR = molecular target: T1, human recombinant GR (Homo sapiens, UniProt P04150); test: Human glucocorticoid receptor (GR) fluorescence polarisation (FP) binding assay
T1 construct: purchased PanVera P2812
T1 sequence (P04150 1-777): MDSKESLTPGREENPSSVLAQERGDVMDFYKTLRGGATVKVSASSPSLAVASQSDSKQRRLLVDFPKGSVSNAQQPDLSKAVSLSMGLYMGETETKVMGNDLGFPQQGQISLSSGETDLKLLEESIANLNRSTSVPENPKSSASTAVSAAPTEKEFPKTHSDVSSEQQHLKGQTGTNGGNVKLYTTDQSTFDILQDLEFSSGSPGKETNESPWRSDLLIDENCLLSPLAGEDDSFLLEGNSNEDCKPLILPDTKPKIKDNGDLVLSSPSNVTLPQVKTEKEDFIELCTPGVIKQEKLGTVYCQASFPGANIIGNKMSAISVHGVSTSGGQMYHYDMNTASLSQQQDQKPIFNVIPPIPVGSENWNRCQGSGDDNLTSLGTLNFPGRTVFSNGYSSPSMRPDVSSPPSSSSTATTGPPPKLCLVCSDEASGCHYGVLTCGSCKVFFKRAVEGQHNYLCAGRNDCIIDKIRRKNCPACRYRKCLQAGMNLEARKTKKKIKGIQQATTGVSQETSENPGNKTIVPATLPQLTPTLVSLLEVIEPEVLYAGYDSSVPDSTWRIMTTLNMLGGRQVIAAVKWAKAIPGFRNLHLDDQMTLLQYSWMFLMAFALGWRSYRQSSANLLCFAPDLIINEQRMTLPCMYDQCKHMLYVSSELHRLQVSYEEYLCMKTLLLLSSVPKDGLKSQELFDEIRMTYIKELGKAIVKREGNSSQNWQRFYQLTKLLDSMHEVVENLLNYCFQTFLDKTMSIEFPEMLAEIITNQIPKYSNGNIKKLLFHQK
Procedure, shortened: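 Competition fluorescence polarisation: 0.5 nM GS Red labelled glucocorticoid and 1 nM recombinant human GR with 8-point half-log compound series, 1% DMSO, 4 h room temperature, potassium phosphate pH 7.4 buffer with molybdate, EDTA, DTT. Affinity derived from the drop in polarisation, normalised to blank wells.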

[2] = HepG2 cells, challenge of 100 nM dexamethasone, Ki from IC50 by Cheng and Prusoff equation
[3] = human recombinant GR, fluorescence polarisation binding assay, read-out: GR binding

SMILES | Ki (human recombinant GR; [3]) | Ki [1, 2] | Ki [1] | Ki (human recombinant GR)
CC(C)n1nncc1S(=O)(=O)N1CCC2=Cc3c(cnn3-c3ccc(F)cc3)C[C@]2(C(=O)c2ccccn2)C1 [Example 11CU, (R)-(1-(4-fluorophenyl)-6-((1-isopropyl-1H-1,2,3-triazol-5-yl)sulfonyl)-4,4a,5,6,7,8-hexahydro-1H-pyrazolo[3,4-g]isoquinolin-4a-yl)(pyridin-2-yl)methanone] | 0.5 to 1 nM | 20 to 100 nM | – | –
Cn1cc(S(=O)(=O)N2CCC3=Cc4c(cnn4-c4ccc(F)cc4)C[C@]3(C(=O)c3cscn3)C2)cn1 [Example 11CY, (R)-(1-(4-fluorophenyl)-6-((1-methyl-1H-pyrazol-4-yl)sulfonyl)-4,4a,5,6,7,8-hexahydro-1H-pyrazolo[3,4-g]isoquinolin-4a-yl)(thiazol-4-yl)methanone] | 0.5 to 1 nM | 20 to 100 nM | – | –
N#Cc1cccc(S(=O)(=O)N2CCC3=Cc4c(cnn4-c4ccc(F)cc4)C[C@]3(C(=O)c3ccccn3)C2)c1 [Example 11G, (R)-3-((1-(4-fluorophenyl)-4a-picolinoyl-4a,5,7,8-tetrahydro-1H-pyrazolo[3,4-g]isoquinolin-6 (4H)-yl)sulfonyl)benzonitrile] | – | – | < 20 nM | < 0.5 nM
Cc1ccc(S(=O)(=O)N2CCC3=Cc4c(cnn4-c4ccc(F)cc4)C[C@]3(C(=O)c3cscn3)C2)cc1 [Example 11K, (R)-(1-(4-fluorophenyl)-6-tosyl-4,4a,5,6,7,8-hexahydro-1H-pyrazolo[3,4-g]isoquinolin-4a-yl)(thiazol-4-yl)methanone] | < 0.5 nM | < 20 nM | – | –
O=C(c1ccccn1)[C@]12Cc3cnn(-c4ccc(F)cc4)c3C=C1CCN(S(=O)(=O)c1cccc(OC(F)F)c1)C2 [Example 11L, (R)-(6-((3-(difluoromethoxy)phenyl)sulfonyl)-1-(4-fluorophenyl)-4,4a,5,6,7,8-hexahydro-1H-pyrazolo[3,4-g]isoquinolin-4a-yl)(pyridin-2-yl)methanone] | < 0.5 nM | < 20 nM | – | –
Cc1ccc(S(=O)(=O)N2CCC3=Cc4c(cnn4-c4ccc(F)cc4)C[C@]3(C(=O)c3ccccn3)C2)cc1C [Example 11M, (R)-(6-((3,4-dimethylphenyl)sulfonyl)-1-(4-fluorophenyl)-4,4a,5,6,7,8-hexahydro-1H-pyrazolo[3,4-g]isoquinolin-4a-yl)(pyridin-2-yl)methanone] | < 0.5 nM | < 20 nM | – | –
Cc1cc(C)cc(S(=O)(=O)N2CCC3=Cc4c(cnn4-c4ccc(F)cc4)C[C@]3(C(=O)c3ccccn3)C2)c1 [Example 11N, (R)-(6-((3,5-dimethylphenyl)sulfonyl)-1-(4-fluorophenyl)-4,4a,5,6,7,8-hexahydro-1H-pyrazolo[3,4-g]isoquinolin-4a-yl)(pyridin-2-yl)methanone] | < 0.5 nM | < 20 nM | – | –
Cc1cccc(S(=O)(=O)N2CCC3=Cc4c(cnn4-c4ccc(F)cc4)C[C@]3(C(=O)c3ccccn3)C2)n1 [Example 11O, (R)-(1-(4-fluorophenyl)-6-((6-methylpyridin-2-yl)sulfonyl)-4,4a,5,6,7,8-hexahydro-1H-pyrazolo[3,4-g]isoquinolin-4a-yl)(pyridin-2-yl)methanone] | < 0.5 nM | < 20 nM | – | –
O=C(c1ccccn1)[C@]12Cc3cnn(-c4ccc(F)cc4)c3C=C1CCN(S(=O)(=O)c1ccc(F)c(F)c1)C2 [Example 11P, (R)-(6-((3,4-difluorophenyl)sulfonyl)-1-(4-fluorophenyl)-4,4a,5,6,7,8-hexahydro-1H-pyrazolo[3,4-g]isoquinolin-4a-yl)(pyridin-2-yl)methanone] | – | – | < 20 nM | < 0.5 nM
O=C(c1ccccn1)[C@]12Cc3cnn(-c4ccc(F)cc4)c3C=C1CCN(S(=O)(=O)c1cc(F)c(F)c(F)c1)C2 [Example 11Q, (R)-(1-(4-fluorophenyl)-6-((3,4,5-trifluorophenyl)sulfonyl)-4,4a,5,6,7,8-hexahydro-1H-pyrazolo[3,4-g]isoquinolin-4a-yl)(pyridin-2-yl)methanone] | < 0.5 nM | < 20 nM | – | –

Further lines, with some results ahead:

Ki (human recombinant GR; [3]) | SMILES | Ki [1, 2] | Ki [1] | Ki (human recombinant GR)
< 0.5 nM | CC(C)n1ncc(S(=O)(=O)N2CCC3=Cc4c(cnn4-c4ccc(F)cc4)C[C@]3(C(=O)c3ccccn3)C2)n1 [Example 11CT, (R)-(1-(4-fluorophenyl)-6-((2-isopropyl-2H-1,2,3-triazol-4-yl)sulfonyl)-4,4a,5,6,7,8-hexahydro-1H-pyrazolo[3,4-g]isoquinolin-4a-yl)(pyridin-2-yl)methanone] | < 20 nM | – | –
< 0.5 nM | CC(C)n1cc(S(=O)(=O)N2CCC3=Cc4c(cnn4-c4ccc(F)cc4)C[C@]3(C(=O)c3ccccn3)C2)nn1 [Example 11CV, (R)-(1-(4-fluorophenyl)-6-((1-isopropyl-1H-1,2,3-triazol-4-yl)sulfonyl)-4,4a,5,6,7,8-hexahydro-1H-pyrazolo[3,4-g]isoquinolin-4a-yl)(pyridin-2-yl)methanone] | 20 to 100 nM | – | –
< 0.5 nM | CCn1nccc1S(=O)(=O)N1CCC2=Cc3c(cnn3-c3ccc(F)cc3)C[C@]2(C(=O)c2cscn2)C1 [Example 11CW, (R)-(6-((1-ethyl-1H-pyrazol-5-yl)sulfonyl)-1-(4-fluorophenyl)-4,4a,5,6,7,8-hexahydro-1H-pyrazolo[3,4-g]isoquinolin-4a-yl)(thiazol-4-yl)methanone] | 20 to 100 nM | – | –
< 0.5 nM | CCCn1cc(S(=O)(=O)N2CCC3=Cc4c(cnn4-c4ccc(F)cc4)C[C@]3(C(=O)c3cc(C(F)(F)F)ccn3)C2)cn1 [Example 11CX, (R)-(1-(4-fluorophenyl)-6-((1-propyl-1H-pyrazol-4-yl)sulfonyl)-4,4a,5,6,7,8-hexahydro-1H-pyrazolo[3,4-g]isoquinolin-4a-yl)(4-(trifluoromethyl)pyridin-2-yl)methanone] | < 20 nM | – | –
< 0.5 nM | CCCn1cc(S(=O)(=O)N2CCC3=Cc4c(cnn4-c4ccc(F)cc4)C[C@]3(C(=O)c3cscn3)C2)cn1 [Example 11CZ, (R)-(1-(4-fluorophenyl)-6-((1-propyl-1H-pyrazol-4-yl)sulfonyl)-4,4a,5,6,7,8-hexahydro-1H-pyrazolo[3,4-g]isoquinolin-4a-yl)(thiazol-4-yl)methanone] | < 20 nM | – | –
< 0.5 nM | COc1ccc(S(=O)(=O)N2CCC3=Cc4c(cnn4-c4ccc(F)cc4)C[C@]3(C(=O)c3ccccn3)C2)cc1F [Example 11D, (R)-(6-((3-fluoro-4-methoxyphenyl)sulfonyl)-1-(4-fluorophenyl)-4,4a,5,6,7,8-hexahydro-1H-pyrazolo[3,4-g]isoquinolin-4a-yl)(pyridin-2-yl)methanone] | < 20 nM | – | –
< 0.5 nM | Cc1ccc(S(=O)(=O)N2CCC3=Cc4c(cnn4-c4ccc(F)cc4)C[C@]3(C(=O)c3ccccn3)C2)c(F)c1 [Example 11E, (R)-(6-((2-fluoro-4-methylphenyl)sulfonyl)-1-(4-fluorophenyl)-4,4a,5,6,7,8-hexahydro-1H-pyrazolo[3,4-g]isoquinolin-4a-yl)(pyridin-2-yl)methanone] | 20 to 100 nM | – | –
< 0.5 nM | Cc1cccc(S(=O)(=O)N2CCC3=Cc4c(cnn4-c4ccc(F)cc4)C[C@]3(C(=O)c3cscn3)C2)c1 [Example 11F, (R)-(1-(4-fluorophenyl)-6-(m-tolylsulfonyl)-4,4a,5,6,7,8-hexahydro-1H-pyrazolo [3,4-g]isoquinolin-4a-yl)(thiazol-4-yl)methanone] | 20 to 100 nM | – | –
< 0.5 nM | O=C(c1ccccn1)[C@]12Cc3cnn(-c4ccc(F)cc4)c3C=C1CCN(S(=O)(=O)c1ccc(OC(F)F)cc1)C2 [Example 11H, (R)-(6-((4-(difluoromethoxy)phenyl)sulfonyl)-1-(4-fluorophenyl)-4,4a,5,6,7,8-hexahydro-1H-pyrazolo[3,4-g]isoquinolin-4a-yl)(pyridin-2-yl)methanone] | < 20 nM | – | –
< 0.5 nM | O=C(c1ccccn1)[C@]12Cc3cnn(-c4ccc(F)cc4)c3C=C1CCN(S(=O)(=O)c1cccc(OC(F)(F)F)c1)C2 [Example 11I, (R)-(1-(4-fluorophenyl)-6-((3-(trifluoromethoxy)phenyl)sulfonyl)-4,4a,5,6,7,8-hexahydro-1H-pyrazolo[3,4-g]isoquinolin-4a-yl)(pyridin-2-yl)methanone] | < 20 nM | – | –
< 0.5 nM | O=C(c1ccccn1)[C@]12Cc3cnn(-c4ccc(F)cc4)c3C=C1CCN(S(=O)(=O)c1cc(F)cc(F)c1)C2 [Example 11J, (R)-(6-((3,5-difluorophenyl)sulfonyl)-1-(4-fluorophenyl)-4,4a,5,6,7,8-hexahydro-1H-pyrazolo[3,4-g]isoquinolin-4a-yl)(pyridin-2-yl)methanone] | < 20 nM | – | –
